These results are taken from patent US4665053A, “Peptide derivatives, the preparation and their use as elastase inhibitors” (Centre National de la Recherche Scientifique, priority 1983, dated 1987).

In assay [1] the target is T1, pancreatic elastase (Sus scrofa, UniProt P00772). Nature of the assay: Resistance of pretreated radiolabelled elastin to hydrolysis by pancreatic elastase. In kind it is biochemical, hog. Particulars: elastin pretreated 24 hours, washed, then 0.05 mg pancreatic elastase; molar ratio inhibitor/enzyme 5 × 10^4. The protocol:
(1c) Elastin pretreated with these substances is partially resistant to enzymatic hydrolysis by the elastases.
For these tests, elastin has been radiolabelled with tritium borohydride NaBH4, specific activity: 1.7×10^5 cmp/mg.
1 mg of elastin is treated with […] of a solution of different compounds in 1 ml of Tris HCl buffer, pH-8.0, for 24 hours; the mixture is centrifuged and the insoluble elastin washed with 1 ml of buffer. 0.05 mg of pancreatic elastase is then added and hydrolysis of the polymer is quantified by measurement of the radioactive peptides liberated during the course of the hydrolysis.

Assay [2] has as its target T2, human leucocytic elastase (Homo sapiens, UniProt P08246).
T2 construct: purified human leucocytic elastase starting from the spleen; from tissue; host or cells: human spleen
T2 sequence (P08246 30-267): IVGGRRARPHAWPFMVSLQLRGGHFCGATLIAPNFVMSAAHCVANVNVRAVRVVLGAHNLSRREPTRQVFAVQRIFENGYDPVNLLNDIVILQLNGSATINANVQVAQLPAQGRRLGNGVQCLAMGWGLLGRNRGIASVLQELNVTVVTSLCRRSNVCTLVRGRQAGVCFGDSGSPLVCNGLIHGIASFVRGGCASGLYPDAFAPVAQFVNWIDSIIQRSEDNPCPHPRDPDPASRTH
Put plainly: Inhibition of purified leucocytic elastase, hydrolysis of synthetic paranitroanilide substrates. Format: biochemical. Particulars: for Percent inhibition: Leucocytic elastase 10×10^-9 M, molar ratio inhibitor/enzyme 4 × 10^4, 15 minutes pre-incubation; for elastase inhibitor (conclusion in words): conclusion on elastases in general. The protocol: (§1) Purified elastases employed: hog pancreatic elastase (120 U/mg) and purified human leucocytic elastase starting from the spleen.
(§2) Molar concentration of these enzymes: pancreatic elastase: 4×10^-9 M; leucocytic elastase: 10×10^-9 M.
(§3) The enzymatic activity of these elastases is followed by hydrolysis of specific synthetic substrates: N-succinoyltrialanine paranitroanilide, acetyl-bis alanylprolyl-alanine paranitroanilide at a final concentration of 1.25 mM in a Tris/HCl buffer, pH=8-8.6. The variation in optical density at 410 nm is followed directly in a Beckman type Acta C III spectrophotometer.
(§4) In the inhibition tests, the oleoyl compounds are pre-incubated 15 minutes with the elastases before determing the residual enzymatic activities.

In the next assay the target is T3, hog pancreatic elastase (Sus scrofa, UniProt P00772).
T3 construct: Purified elastases employed: hog pancreatic elastase (120 U/mg); host or cells: pancreas, by the enzyme's name only
Put plainly: Inhibition of purified pancreatic elastase, hydrolysis of synthetic paranitroanilide substrates. In kind it is biochemical. Particulars: Pancreatic elastase 4×10^-9 M; molar ratio inhibitor/enzyme 4 × 10^4; 15 minutes pre-incubation. The method, then: as §1, §2, §3, §4

For assay [3], the target named is T1, pancreatic elastase. Nature of the assay: In vivo inhibition of degradation of cutaneous elastic fibers induced by intradermal injection of pancreatic elastase. Particulars: rabbit skin, intradermal pretreatment, histology and quantitative morphometry. Set-up: host or cells: exogenous enzyme injected into rabbit skin. The method, then: 2. In vivo study of the inhibiting action of Oleoyl-bis-alanyl-proline-alanine towards the enzymatic degradation of cutaneous elastic fibers induced by intradermal injection of pancreatic elastase
For these tests, young Garenne rabbits (1 month) have been employed. 3 types of intradermal injections (volume: 0.25 ml; solvent: phosphate buffer, pH 7.0) have been performed on the backs of the test animals.
1. Control injection: injection of 0.25 ml of phosphate buffer only;
2. Injection of hog pancreatic elastase: 10 micrograms (1.2 units […]) in 0.25 ml of buffer; and
3. Injections of 50-250 micrograms of Ol--(Ala)2 --Pro--Ala (8×10^-8 to 3×10^-7 mole) in 0.25 ml of buffer followed by an injection at the same site of 10 micrograms (1.2 units, 4×10^-10 mole) of pancreatic elastase in 0.25 ml of buffer.
Different samples of rabbit skin are then treated in histology in order to permit visualization of elastic fibers.
The histologic observation and studies of quantitative morphometry reveal: […]

Residues, ends and D or L forms follow the SMILES beside them. *: point of attachment. Oleoyl = CCCCCCCC/C=C\CCCCCCCC(=O)*

T1 sequence (P00772 27-266): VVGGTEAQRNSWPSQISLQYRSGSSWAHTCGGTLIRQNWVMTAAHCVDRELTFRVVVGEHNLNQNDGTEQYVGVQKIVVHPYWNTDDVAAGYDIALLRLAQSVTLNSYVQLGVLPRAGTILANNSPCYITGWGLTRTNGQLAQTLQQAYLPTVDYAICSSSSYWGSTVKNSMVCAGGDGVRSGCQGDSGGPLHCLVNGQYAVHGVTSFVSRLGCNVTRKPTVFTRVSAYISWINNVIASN
T3 sequence (P00772 27-266): as above

`C[C@H](N)C(=O)N[C@@H](C)C(=O)N1CCC[C@H]1C(=O)N[C@@H](C)C(=O)O` [H(Ala)2 Pro Alanine, L-Alanyl-L-Alanyl-L-Proyl-Alanine, reference compound] (H-AAPA-OH): the “Percent inhibition relative to samples without pretreatment” value on pancreatic elastase [1] is 0%.
With `CC(C)[C@H](NC(=O)[C@@H]1CCCN1C(=O)[C@H](C)NC(=O)[C@H](C)N)C(=O)O` [H(Ala)2 Pro Valine, L-Alanyl-L-Alanyl-L-Prolyl-L-Valine, reference compound] (H-AAPV-OH), at pancreatic elastase [1], the “Percent inhibition relative to samples without pretreatment” value was 0%.
Take `CCCCCCCC/C=C\CCCCCCCC(=O)N[C@@H](C)C(=O)N[C@@H](C)C(=O)N1CCC[C@H]1C(=O)N[C@@H](C)C=O` [Ol(Ala)2 Pro Alaninal, Oleoyl-L-Alanyl-L-Alanyl-L-Prolyl-L-Alaninal] (Oleoyl-AAPA-aldehyde): in assay [2], the Percent inhibition turned out to be 90% and the “elastase inhibitor (conclusion in words)” value is listed as “act as elastase inhibitors”. Besides, the Percent inhibition at hog pancreatic elastase is recorded as 85%. Also, on pancreatic elastase [1], the “Percent inhibition relative to samples without pretreatment” value stood at 98%.
Consider `CCCCCCCC/C=C\CCCCCCCC(=O)N[C@@H](C)C(=O)N[C@@H](C)C(=O)N1CCC[C@H]1C(=O)N[C@@H](C)C(=O)O` [Ol(Ala)2 Pro Alanine, Oleoyl-L-Alanyl-L-Alanyl-L-Prolyl-L-Alanine] (Oleoyl-AAPA-OH), for which the values for the Percent inhibition (in assay [2]; at hog pancreatic elastase) were 5% and 15%, respectively. Moreover, in assay [2], the “elastase inhibitor (conclusion in words)” value was “act as elastase inhibitors”. The elastic tissue preserved at pancreatic elastase [3] (molar ratio inhibitor/enzyme 2×10^2) is 40-60%; on pancreatic elastase [3] (molar ratio inhibitor/enzyme 10^3), 60-80%.
For the compound `CCCCCCCC/C=C\CCCCCCCC(=O)N[C@@H](C)C(=O)N[C@@H](C)C(=O)N1CCC[C@H]1C(=O)N[C@H](C(=O)O)C(C)C` [Ol(Ala)2 Pro Valine, Oleoyl-L-Alanyl-L-Alanyl-L-Prolyl-L-Valine] (Oleoyl-AAPV-OH), in assay [2], the Percent inhibition was 51% and the “elastase inhibitor (conclusion in words)” value was “act as elastase inhibitors”. Also, on pancreatic elastase [1], the “Percent inhibition relative to samples without pretreatment” value was 46%.
